Biological target: T1, Human A934T SLACK (Homo sapiens, UniProt Q5JUK3, A915T)
T1 construct: host or cells: CHO-K1
T1 sequence (Q5JUK3 1-1235 isoform Q5JUK3-3 A934T): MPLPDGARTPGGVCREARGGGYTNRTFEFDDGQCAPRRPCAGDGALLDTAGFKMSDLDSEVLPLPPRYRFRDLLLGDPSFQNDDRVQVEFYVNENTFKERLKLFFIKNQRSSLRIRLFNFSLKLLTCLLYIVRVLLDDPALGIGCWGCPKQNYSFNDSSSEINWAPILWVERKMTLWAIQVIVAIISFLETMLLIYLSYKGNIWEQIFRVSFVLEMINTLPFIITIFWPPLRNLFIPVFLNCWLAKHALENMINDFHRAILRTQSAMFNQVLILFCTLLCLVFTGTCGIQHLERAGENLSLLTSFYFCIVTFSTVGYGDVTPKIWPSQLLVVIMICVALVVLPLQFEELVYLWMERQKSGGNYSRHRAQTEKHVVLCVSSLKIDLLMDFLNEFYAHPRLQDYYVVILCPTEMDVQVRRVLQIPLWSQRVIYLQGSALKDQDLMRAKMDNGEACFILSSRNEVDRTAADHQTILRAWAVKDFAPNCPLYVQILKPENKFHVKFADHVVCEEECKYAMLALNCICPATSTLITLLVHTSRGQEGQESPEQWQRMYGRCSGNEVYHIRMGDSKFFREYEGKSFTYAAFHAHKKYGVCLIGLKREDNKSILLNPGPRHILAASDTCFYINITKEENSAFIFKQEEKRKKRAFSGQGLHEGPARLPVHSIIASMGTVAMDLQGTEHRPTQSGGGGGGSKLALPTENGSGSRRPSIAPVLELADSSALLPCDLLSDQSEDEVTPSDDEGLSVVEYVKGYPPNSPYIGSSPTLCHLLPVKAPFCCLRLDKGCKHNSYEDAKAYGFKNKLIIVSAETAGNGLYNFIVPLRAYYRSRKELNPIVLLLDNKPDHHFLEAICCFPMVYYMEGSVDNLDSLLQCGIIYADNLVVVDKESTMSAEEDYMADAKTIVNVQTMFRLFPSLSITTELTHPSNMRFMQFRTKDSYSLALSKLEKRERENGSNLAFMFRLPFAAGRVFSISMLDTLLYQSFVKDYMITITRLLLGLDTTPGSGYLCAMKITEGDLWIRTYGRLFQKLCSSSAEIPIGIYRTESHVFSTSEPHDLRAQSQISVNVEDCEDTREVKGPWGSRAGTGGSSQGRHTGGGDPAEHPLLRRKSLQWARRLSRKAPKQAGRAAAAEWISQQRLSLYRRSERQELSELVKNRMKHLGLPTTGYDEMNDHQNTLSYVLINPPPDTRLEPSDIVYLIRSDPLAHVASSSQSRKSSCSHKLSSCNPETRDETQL
Test: Whole-cell APC in CHO-K1 cells stably expressing human A934T SLACK
Format: cell-based
Conditions: for IC50: APC, CHO-K1 cells; for Imax: maximum inhibition at 30 µM standardized to VU0606170 (set at 100%)
From the text: Finally, we chose to screen the same two compounds versus mouse SLACK and two clinically relevant GOF SLACK mutants in APC assays utilizing CHO-K1 cells stably expressing these targets (Table 7). Screening versus the mouse homolog was deemed important for evaluating the potential of the series to ultimately lead to a useful in vivo tool via further optimization.
Stably transfected monoclonal HEK293 cell lines expressing SLICK, Maxi-K α1/β3, Maxi-K α1/β4, CaV3.2, GIRK 1/2, KV2.1, KV7.2, NaV1.7, and TASK-1 were generated as previously described. Stably transfected monoclonal HEK293 cell lines expressing hERG were generated as previously described. CHO-K1 cells expressing human SLACK and disease-associated human SLACK mutations, G288S and A934T, were generated by transfecting a PiggyBac TRE mammalian expression vector (VectorBuilder, Chicago, IL, USA) containing KCNT1. FuGENE 6 (Promega, Madison, WI, USA) transfection reagent and protocol, together with Opti-MEM (Thermo Fisher Scientific, Waltham, MA, USA), were utilized according to the manufacturer’s instructions.
Automated patch clamp recording was performed with a SyncroPatch 768 PE system (Nanion, Munich, Germany) as previously described. Whole-cell recordings were performed at room temperature. Cells were harvested by first washing with PBS without Mg^2+ or Ca^2+ (Gibco, Billings, MT, USA) to remove cell culture medium, followed by dissociation with TryPLE (Gibco, Billings, MT, USA). Cells were then resuspended and diluted to 200,000 cells/mL in external solution. External solution contained 105 mM NaCl, 4 mM KCl, 1 mM MgCl2, 5 mM CaCl2, 10 mM HEPES, 40 mM N-Methyl-D-glucamine chloride, titrated to pH 7.4 with NaOH and osmolarity of 300 mOsm/kg; internal solution contained 70 mM NaCl, 70 mM KF, 10 mM KCl, 5 mM EGTA, 5mM HEPES, titrated to a pH 7.2 with KOH and osmolarity of 295 mOsm/kg.
The APC protocol was set as following: Cells were held at […] −80 mV for 100 ms, then a ramp protocol was performed from −100 mV to 80 mV at 0.4 mV/ms, hold the cell at −80 mV for another 100 ms, then steps were performed at −20 mV, 0 mV, +20 mV, +40 mV, and +60 mV for 100 ms of each step. Whole-cell currents were measured at 0 mV and normalized to current after external buffer addition.

SMILES	IC50 [nM]	Imax [%]
CN(c1ccc(C#N)cc1)c1ncc(NC(=O)C(C)(C)Oc2ccc(Cl)cc2)cn1 [Analog 66]	1200	84
CC(C)(Oc1ccc(Cl)cc1)C(=O)Nc1cnc(Oc2c(F)cccc2F)nc1 [Analog 40]	410	96

— article PMC11643494, “Structure–Activity Relationship Studies in a Series of 2-Aryloxy-N-(pyrimidin-5-yl)acetamide Inhibitors of SLACK Potassium Channels” (Molecules, 2024)
